Consider 7 compounds from patent US20230146870A1, “METHOD TO QUANTIFY AFFINITY AND SELECTIVITY OF SMALL MOLECULES FOR PROTEINS IN LIVING CELLS” (Ohio State Innovation Foundation, priority 2021, published 2023).

The structures appear in SMILES notation.

Experiment [1] concerns the target T1, mouse PKCβI-mVenus (Mus musculus, UniProt P68404).
T1 construct: eight plasmids encoding full length mouse PKC isozymes fused to; expressed in transfected cells; host or cells: HEK293
In words: Fluorescent cellular competition assay with probe 47, PKCβI-mVenus. It counts as binding. An excerpt:
(§1) Labeled compounds (tracers) can be used to measure dissociation constants (Kd) and evaluate how tightly different compounds bind to a target protein. However, labeled ligands are not always readily accessible and labels such as fluorophores on small molecules can affect affinities compared to unlabeled compounds. As an alternative, competitive binding assays are widely used to quantify the affinity of small molecules for target proteins. This approach can measure binding by varying the concentration of an unlabeled ligand in the presence of a fixed concentration of a tracer of interest (FIG. 24). The feasibility of this approach for quantification of cellular Ki values using probe 47 was validated with PMA as shown in Table 1.
(§2) HEK293 cells were transfected with different plasmids encoding fluorescent PKC isoforms.

Experiment [2] concerns the target mouse PKCα-mVenus (Mus musculus, UniProt P20444). In words: Fluorescent cellular competition assay with probe 47, PKCα-mVenus. Also noted: eight plasmids encoding full length mouse PKC isozymes fused to; expressed in transfected cells; host or cells: HEK293. The experiment is classed as binding.
Excerpt: as §1, §2

For experiment [3], the target named is mouse PKCγ-mVenus (Mus musculus, UniProt P63318). In words: Fluorescent cellular competition assay with probe 47, PKCγ-mVenus. Also noted: eight plasmids encoding full length mouse PKC isozymes fused to; expressed in transfected cells; host or cells: HEK293. The experiment is classed as binding.
Excerpt: as §1, §2

Experiment [4] has as its target mouse PKCδ-mVenus (Mus musculus, UniProt P28867). The experiment is described as follows: Fluorescent cellular competition assay with probe 47, PKCδ-mVenus. Also noted: eight plasmids encoding full length mouse PKC isozymes fused to; expressed in transfected cells; host or cells: HEK293. It counts as binding.
Excerpt: as §1, §2

The target of experiment [5] is T2, mouse PKCε-mVenus (Mus musculus, UniProt P16054).
T2 sequence (P16054 1-737): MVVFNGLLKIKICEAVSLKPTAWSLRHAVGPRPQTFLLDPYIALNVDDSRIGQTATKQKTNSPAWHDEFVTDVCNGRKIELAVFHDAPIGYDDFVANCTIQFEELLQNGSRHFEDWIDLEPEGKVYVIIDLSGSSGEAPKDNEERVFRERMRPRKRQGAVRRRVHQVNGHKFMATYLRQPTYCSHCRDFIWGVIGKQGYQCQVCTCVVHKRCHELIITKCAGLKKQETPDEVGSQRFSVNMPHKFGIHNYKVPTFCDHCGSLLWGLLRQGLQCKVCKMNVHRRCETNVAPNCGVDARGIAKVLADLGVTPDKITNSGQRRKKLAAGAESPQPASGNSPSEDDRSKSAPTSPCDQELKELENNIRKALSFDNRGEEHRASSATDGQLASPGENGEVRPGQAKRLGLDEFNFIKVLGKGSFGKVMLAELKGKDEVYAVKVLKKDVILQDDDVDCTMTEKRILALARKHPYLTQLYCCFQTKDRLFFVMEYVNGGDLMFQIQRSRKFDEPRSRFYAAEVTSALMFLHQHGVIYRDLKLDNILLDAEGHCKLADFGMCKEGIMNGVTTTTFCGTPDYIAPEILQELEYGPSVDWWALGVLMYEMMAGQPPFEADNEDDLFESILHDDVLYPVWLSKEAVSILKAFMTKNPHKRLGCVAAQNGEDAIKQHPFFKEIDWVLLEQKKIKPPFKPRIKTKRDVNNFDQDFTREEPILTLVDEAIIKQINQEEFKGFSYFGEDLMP
The experiment is described as follows: Fluorescent cellular competition assay with probe 47, PKCε-mVenus. It counts as binding. Also on record: eight plasmids encoding full length mouse PKC isozymes fused to; expressed in transfected cells; host or cells: HEK293.
Excerpt: as §1, §2

Experiment [6] concerns the target mouse PKCη-mVenus (Mus musculus, UniProt P23298). The experiment is described as follows: Fluorescent cellular competition assay with probe 47, PKCη-mVenus. The experiment is classed as binding. Also noted: eight plasmids encoding full length mouse PKC isozymes fused to; expressed in transfected cells; host or cells: HEK293.
Excerpt: as §1, §2

In experiment [7] the target is mouse PKCθ-mVenus (Mus musculus, UniProt Q02111). In words: Fluorescent cellular competition assay with probe 47, PKCθ-mVenus. The experiment is classed as binding. Also noted: eight plasmids encoding full length mouse PKC isozymes fused to; expressed in transfected cells; host or cells: HEK293 (transient).
Excerpt: as §1, §2

In experiment [8] the target is crosslinked / purified microtubules. The conditions noted are these: previously reported, cited from earlier work; for Ki: read-out: biochemical Ki for microtubules.
The test system of experiment [9] is microtubules (taxane binding site) in living HeLa cells. The experiment is described as follows: Competition binding assay with PB-GABA-Taxol in living HeLa cells (cellular Ki). The conditions noted are these: read-out: cellular Ki; PB-GABA-Taxol 1.5 μM, verapamil 100 μM, 37° C., 4% FBS, 3 h.
Description: In this assay the cellular Kd was measured by varying the concentration of the fluorescent probe added to cells at equilibrium as established by kinetic assays of probe uptake. Total binding of this probe to specific and non-specific sites in cells in the presence of the efflux inhibitor verapamil was determined by flow cytometry. Non-specific binding was quantified separately by addition of excess paclitaxel with the probe under the same conditions. Subtraction of the linear non-specific binding contribution from the total binding curve was used analyze specific binding of the probe to tubulin of microtubules. Measurement of this cellular dissociation constant under equilibrium conditions further allowed conversion of the half-maximal inhibitory concentration (IC50) of unlabeled compounds into cellular inhibitory constants using an adaptation of the Cheng-Prusoff equation^44 for competitive modulators (Ki) or the allosteric equation^45 for non-competitive modulators (Kb and the cooperativity factor α) as implemented by GraphPad Prism.
Experiment [10] concerns microtubules in living HeLa cells. The experiment is described as follows: Allosteric modulator assay with PB-GABA-Taxol in living HeLa cells (cellular Kb, α). The conditions noted are these: PB-GABA-Taxol 1.5 μM, verapamil 100 μM, 3 h, 37° C.; for Kb: read-out: cellular Kb (allosteric modulator).
Excerpt: In this model, two compounds that engage tubulin at different binding sites influence the binding of each other through cooperativity. […] Smaller cooperativity factors (α) represent stronger effects on binding of the orthosteric probe. For these allosteric modulators, the apparent cellular affinity was defined as Kb, and the mathematical relationship between Kb and α is provided (equation 3).
The experimental method for allosteric binding assays was identical to the competition binding assays described previously. However, because it is inaccurate to describe an allosteric modulator with a competitive inhibitory constant (Ki), we used an allosteric modulator model (Kb) for data analysis. […] The observed occupancy of the orthosteric ligand is defined as KApp and is determined by the equilibrium dissociation constant of the orthosteric ligand (Kd), the concentration of allosteric ligand, its affinity for the receptor (Kb), and the strength by which the allosteric ligand affects receptor binding to the orthosteric ligand as defined by the cooperativity factor (a).
Experiment [11] concerns the target T1, mouse PKCβI-mVenus. In words: Apparent cellular Kd by flow cytometry, HEK293 cells overexpressing PKCβI-mVenus (Example 2). It counts as binding. As to the method: The apparent Kd values of these fluorescent probes were measured using different PKC isozymes (e.g., PKCβI, FIGS. 20A-20D). HEK293 cells were transfected to overexpress PKCβ-mVenus and treated with probes in the presence of verapamil (100 μM) as an inhibitor of efflux.

Experiment [12] concerns the target T3, C1A-C1A-EYFP (PKCγ) (UniProt P63319).
T3 construct: apparent Kd; other: verapamil 100 μM, 90 min, 37° C., DMEM high glucose, 4% FBS; half time (t1/2) of cellular fluorescence; other: 33 at 5 μM, verapamil 100 μM, room temperature; fused on or other part: EYFP at the C-terminus; the C1A module is present twice in one chain
In words: Cellular binding by flow cytometry, HEK293 cells expressing C1A-C1A-EYFP (PKCγ). From the text: The dissociation constant can be defined as the ratio of koff divided by kon. This value is also the concentration where the ligand occupies 50% of the receptor.^94 Kd is only meaningful when equilibrium is reached, where the ligand-receptor complex is formed at the same rate as it dissociates into free ligand and receptor (FIG. 15). This binding equilibrium is established when essentially no further change in the amount of bound complex is observed over time. To evaluate the time needed for equilibration, we treated HEK293 cells that overexpress C1A-C1A-EYFP (PKCγ) with 33 (0 and 5 μM) in the presence or absence of verapamil (100 μM) and cellular fluorescence was measured by flow cytometry as a function of time (FIG. 18A). […] This optimization was used to establish a 90 min equilibration period for further assay optimization.
The presence of fetal bovine serum (FBS) in the culture media also influenced the binding by sequestering the free ligand. The assay conditions were finalized using HEK293 cells incubated with the probe in the presence of verapamil for 90 min at 37° C. in DMEM media (high glucose, 4% FBS).
(In general: In flow cytometry, cells or beads pass a laser one at a time.)

Sequence of mouse PKCθ-mVenus (Q02111 whole entry, the tested form may be a part): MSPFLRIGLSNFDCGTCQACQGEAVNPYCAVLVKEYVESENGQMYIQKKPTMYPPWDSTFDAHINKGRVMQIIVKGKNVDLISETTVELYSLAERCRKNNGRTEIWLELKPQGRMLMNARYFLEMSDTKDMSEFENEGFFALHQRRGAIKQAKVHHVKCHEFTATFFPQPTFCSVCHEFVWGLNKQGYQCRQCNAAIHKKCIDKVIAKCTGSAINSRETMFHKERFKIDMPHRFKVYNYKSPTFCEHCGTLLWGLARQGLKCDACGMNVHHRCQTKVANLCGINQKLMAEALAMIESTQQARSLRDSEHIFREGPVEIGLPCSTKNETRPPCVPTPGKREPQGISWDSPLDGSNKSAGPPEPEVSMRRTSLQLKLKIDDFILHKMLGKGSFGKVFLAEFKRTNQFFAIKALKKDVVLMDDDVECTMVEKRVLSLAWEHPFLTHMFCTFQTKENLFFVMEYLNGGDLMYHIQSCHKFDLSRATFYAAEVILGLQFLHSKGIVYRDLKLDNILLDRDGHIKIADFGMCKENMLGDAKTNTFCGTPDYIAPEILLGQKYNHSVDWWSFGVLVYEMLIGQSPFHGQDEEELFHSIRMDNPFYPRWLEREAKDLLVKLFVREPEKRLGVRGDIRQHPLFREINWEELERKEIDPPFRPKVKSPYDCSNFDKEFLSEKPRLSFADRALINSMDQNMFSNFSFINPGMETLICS
Sequence of mouse PKCη-mVenus (P23298 whole entry, the tested form may be a part): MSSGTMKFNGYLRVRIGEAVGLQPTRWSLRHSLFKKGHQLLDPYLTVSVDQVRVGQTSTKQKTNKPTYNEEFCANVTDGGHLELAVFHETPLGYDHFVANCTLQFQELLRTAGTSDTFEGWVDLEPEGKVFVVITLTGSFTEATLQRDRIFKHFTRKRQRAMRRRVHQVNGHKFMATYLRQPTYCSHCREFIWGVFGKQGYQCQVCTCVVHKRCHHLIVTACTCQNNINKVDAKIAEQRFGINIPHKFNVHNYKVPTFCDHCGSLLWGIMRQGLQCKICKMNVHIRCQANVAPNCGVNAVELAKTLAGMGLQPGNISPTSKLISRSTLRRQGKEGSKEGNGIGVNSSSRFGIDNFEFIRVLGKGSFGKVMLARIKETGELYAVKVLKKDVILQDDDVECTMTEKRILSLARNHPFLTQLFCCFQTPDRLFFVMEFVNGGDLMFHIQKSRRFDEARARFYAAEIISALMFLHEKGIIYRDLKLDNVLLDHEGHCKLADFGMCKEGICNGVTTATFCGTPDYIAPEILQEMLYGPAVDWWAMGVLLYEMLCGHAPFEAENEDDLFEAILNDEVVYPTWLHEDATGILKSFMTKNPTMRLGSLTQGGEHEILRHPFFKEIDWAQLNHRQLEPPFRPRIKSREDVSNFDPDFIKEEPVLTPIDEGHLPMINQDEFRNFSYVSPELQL
T1 sequence (P68404 whole entry, the tested form may be a part): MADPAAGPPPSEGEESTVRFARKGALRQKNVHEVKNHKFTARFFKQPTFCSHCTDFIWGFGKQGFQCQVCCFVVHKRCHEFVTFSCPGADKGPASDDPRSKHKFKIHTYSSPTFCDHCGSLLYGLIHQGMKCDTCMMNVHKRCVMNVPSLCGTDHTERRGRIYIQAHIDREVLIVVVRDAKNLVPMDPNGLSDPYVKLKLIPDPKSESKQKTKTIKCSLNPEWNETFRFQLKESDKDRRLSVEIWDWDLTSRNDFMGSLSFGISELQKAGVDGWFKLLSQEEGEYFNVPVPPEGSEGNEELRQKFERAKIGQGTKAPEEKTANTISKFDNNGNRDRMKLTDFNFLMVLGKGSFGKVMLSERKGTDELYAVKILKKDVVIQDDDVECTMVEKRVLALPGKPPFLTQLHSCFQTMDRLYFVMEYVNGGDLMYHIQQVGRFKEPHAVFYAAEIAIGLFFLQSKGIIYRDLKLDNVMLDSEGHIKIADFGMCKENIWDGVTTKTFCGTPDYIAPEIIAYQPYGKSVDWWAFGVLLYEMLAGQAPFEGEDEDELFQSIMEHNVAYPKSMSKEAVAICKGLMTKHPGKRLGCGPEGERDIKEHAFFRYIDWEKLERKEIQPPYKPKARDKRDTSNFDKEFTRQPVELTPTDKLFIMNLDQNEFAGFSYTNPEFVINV
Sequence of mouse PKCδ-mVenus (P28867 whole entry, the tested form may be a part): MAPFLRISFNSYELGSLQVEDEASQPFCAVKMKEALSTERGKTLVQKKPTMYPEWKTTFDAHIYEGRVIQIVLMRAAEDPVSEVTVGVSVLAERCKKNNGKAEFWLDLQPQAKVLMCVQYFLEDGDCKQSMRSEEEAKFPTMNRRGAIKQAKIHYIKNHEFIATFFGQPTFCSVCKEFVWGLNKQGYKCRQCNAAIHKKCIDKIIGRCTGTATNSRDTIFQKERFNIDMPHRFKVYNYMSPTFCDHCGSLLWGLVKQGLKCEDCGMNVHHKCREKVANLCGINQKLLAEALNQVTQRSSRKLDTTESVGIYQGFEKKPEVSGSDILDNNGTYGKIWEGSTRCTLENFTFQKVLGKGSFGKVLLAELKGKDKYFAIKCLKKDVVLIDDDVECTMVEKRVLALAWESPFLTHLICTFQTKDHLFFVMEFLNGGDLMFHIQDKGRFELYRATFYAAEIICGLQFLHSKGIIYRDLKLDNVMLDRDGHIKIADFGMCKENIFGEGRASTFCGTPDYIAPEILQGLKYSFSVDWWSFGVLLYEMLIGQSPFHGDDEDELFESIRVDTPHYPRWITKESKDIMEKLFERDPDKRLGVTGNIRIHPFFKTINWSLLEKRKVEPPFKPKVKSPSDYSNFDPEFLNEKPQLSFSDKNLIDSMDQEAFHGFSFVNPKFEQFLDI

For the compound `CCCCCCCCCCCCCC(=O)O[C@@H]1[C@@H](C)[C@@]2(O)[C@@H](C=C(CO)C[C@]3(O)C(=O)C(C)=C[C@@H]23)[C@@H]2C(C)(C)[C@]12OC(C)=O` [PMA, 12-O-tetradecanoylphorbol-13-acetate], the “Efficacy, PKCβI” value in experiment [1] (PMA vs probe 47) was found to be 103%. The “IC50/Ki, PKCβI” value in [1] (PMA vs probe 47) turned out to be 2.5. Also, the IC50 (commonly the concentration that inhibits the measured activity by half) is 15 nM in [1] (probe 47 1.4 μM, verapamil 25 μM, read-out: IC50 (PMA), PKCβI); 14 nM in experiment [2] (probe 47 1.4 μM, verapamil 25 μM, read-out: IC50 (PMA), PKCα); 12 nM in experiment [3] (probe 47 2.9 μM, verapamil 25 μM, read-out: IC50 (PMA), PKCγ); 39 nM in experiment [4] (probe 47 5.8 μM, verapamil 25 μM, read-out: IC50 (PMA), PKCδ); 49 nM in [5] (probe 47 2.9 μM, verapamil 25 μM, read-out: IC50 (PMA), PKCε); 32 nM in experiment [6] (probe 47 4.3 μM, verapamil 25 μM, read-out: IC50 (PMA), PKCη). Besides, the IC50 in [7] (probe 47 4.3 μM, verapamil 25 μM, read-out: IC50 (PMA), PKCθ) amounted to 13 nM. The Ki (as a rule, a dissociation constant, usually derived from enzyme kinetics or from competition with a known ligand) in experiment [1] (probe 47 1.4 μM, verapamil 25 μM, read-out: Ki (PMA), PKCβI) amounted to 5.7 nM; in experiment [2] (probe 47 1.4 μM, verapamil 25 μM, read-out: Ki (PMA), PKCα), 7.5 nM; in experiment [3] (probe 47 2.9 μM, verapamil 25 μM, read-out: Ki (PMA), PKCγ), 4.9 nM; in experiment [4] (probe 47 5.8 μM, verapamil 25 μM, read-out: Ki (PMA), PKCδ), 23 nM; in experiment [5] (probe 47 2.9 μM, verapamil 25 μM, read-out: Ki (PMA), PKCε) it was 36 nM; in experiment [6] (probe 47 4.3 μM, verapamil 25 μM, read-out: Ki (PMA), PKCη), 21 nM. Moreover, in experiment [7] (probe 47 4.3 μM, verapamil 25 μM, read-out: Ki (PMA), PKCθ), the inhibitory constant (Ki) worked out at 10 nM. The “Efficacy, PKCα” value in [2] (PMA vs probe 47) was determined as 95%. For the same compound, the “IC50/Ki, PKCα” value in experiment [2] (PMA vs probe 47) was 1.9. In addition, the “Efficacy, PKCγ” value in [3] (PMA vs probe 47) was 97%. In experiment [3] (PMA vs probe 47), the “IC50/Ki, PKCγ” value is 2.4. Also, the “Efficacy, PKCδ” value in experiment [4] (PMA vs probe 47) turned out to be 81%. The “IC50/Ki, PKCδ” value in experiment [4] (PMA vs probe 47) is on record as 1.7. For the same compound, the “Efficacy, PKCε” value in [5] (PMA vs probe 47) stood at 81%. Besides, in experiment [5] (PMA vs probe 47), the “IC50/Ki, PKCε” value is 1.4. The “Efficacy, PKCη” value in experiment [6] (PMA vs probe 47) is reported as 80%. Also, the “IC50/Ki, PKCη” value in experiment [6] (PMA vs probe 47) stood at 1.5. In addition, the “Efficacy, PKCθ” value in experiment [7] (PMA vs probe 47) stood at 80%. Besides, the “IC50/Ki, PKCθ” value in [7] (PMA vs probe 47) is recorded as 1.4.
With `CO[C@H]1C(=O)[C@]2(C)[C@@H](OC)C[C@H]3OC[C@@]3(OC(C)=O)[C@H]2[C@H](OC(=O)c2ccccc2)[C@]2(O)C[C@H](OC(=O)[C@H](O)[C@@H](NC(=O)OC(C)(C)C)c3ccccc3)C(C)=C1C2(C)C` [cabazitaxel], the Ki in experiment [8] is 7.4 ± 0.9 nM; in experiment [9] it was 6 nM.
As for `CC(=O)O[C@@]12CO[C@@H]1C[C@H](O)[C@@]1(C)C(=O)[C@H](O)C3=C(C)[C@@H](OC(=O)[C@H](O)[C@@H](NC(=O)OC(C)(C)C)c4ccccc4)C[C@@](O)([C@@H](OC(=O)c4ccccc4)[C@H]21)C3(C)C` [docetaxel], the Ki in experiment [8] is 17 ± 6 nM; in experiment [9], 16 nM.
For the compound `COc1cc2cc(c1Cl)N(C)C(=O)C[C@H](OC(=O)[C@H](C)N(C)C(C)=O)[C@]1(C)O[C@H]1[C@H](C)[C@@H]1C[C@@](O)(NC(=O)O1)[C@H](OC)/C=C/C=C(\C)C2` [maytansine], in experiment [10], the “cooperativity factor α” value is 0.21 and the Kb came out at 3 nM.
As for `CC1=C[C@H]2[C@@]3(O)[C@H](C)[C@@H](O)[C@]4(OC(=O)N(C)CCCCCCCCN(C)C(=O)c5cc6cc(F)c(O)c(F)c6oc5=O)[C@H]([C@@H]3C=C(CO)C[C@]2(O)C1=O)C4(C)C` [probe 32, (1aR,1bS,4aR,7aS,7bS,8R,9R,9aS)-4a,7b,9-trihydroxy-3-(hydroxymethyl)-1,1,6,8-tetramethyl-5-oxo-1,1a,1b,4,4a,5,7a,7b,8,9-decahydro-9aH-cyclopropa[3,4]benzo[1,2-e]azulen-9a-yl (8-(6,8-difluoro-7-hydroxy-N-methyl-2-oxo-2H-chromene-3-carboxamido)octyl)(methyl)carbamate], in [11], the Kd was determined as 63000 nM.
Take `C#CCN(CCCCCCCCCCCCNC(=O)c1cc2cc(F)c(O)c(F)c2oc1=O)C(=O)O[C@@]12[C@H](O)[C@@H](C)[C@@]3(O)[C@@H](C=C(CO)C[C@]4(O)C(=O)C(C)=C[C@@H]34)[C@@H]1C2(C)C` [probe 48, (1aR,1bS,4aR,7aS,7bS,8R,9R,9aS)-4a,7b,9-trihydroxy-3-(hydroxymethyl)-1,1,6,8-tetramethyl-5-oxo-1,1a,1b,4,4a,5,7a,7b,8,9-decahydro-9aH-cyclopropa[3,4]benzo[1,2-e]azulen-9a-yl (12-(6,8-difluoro-7-hydroxy-2-oxo-2H-chromene-3-carboxamido)dodecyl)(prop-2-yn-1-yl)carbamate]: the “affinity relative to 33” value in experiment [12] was roughly 2 fold. Further, the Kd in [12] (verapamil 100 μM, 90 min, 37° C., DMEM high glucose, 4% FBS, read-out: apparent Kd) stood at 2000 nM.
For the compound `CC[C@]1(O)C[C@@H]2CN(CCc3c([nH]c4ccccc34)[C@@](C(=O)OC)(c3cc4c(cc3OC)N(C)[C@H]3[C@@](O)(C(=O)OC)[C@H](OC(C)=O)[C@]5(CC)C=CCN6CC[C@]43[C@@H]65)C2)C1` [vinblastine], in experiment [8] (read-out: biochemical Kd for microtubules), the Kd was 190 to 1000 nM. Besides, in experiment [10], the “cooperativity factor α” value is 0.18 and the Kb came to 7 nM.
